Results reported in ChEMBL document CHEMBL2169770, “The discovery and optimization of a novel class of potent, selective, and orally bioavailable anaplastic lymphoma kinase (ALK) inhibitors with potential utility for the treatment of cancer” (J Med Chem, 2012).

Key:
[1] = Volume of distribution at steady state in rat; assay type: ADME, organism-based; details: in vivo, read-out: Vdss
[2] = Oral bioavailability in Beagle dog; assay type: ADME, organism-based, Canis lupus familiaris; details: in vivo
[3] = Volume of distribution at steady state in Beagle dog; assay type: ADME, organism-based, Canis lupus familiaris; details: in vivo, read-out: Vdss
[4] = Oral bioavailability in rat; assay type: ADME, organism-based; details: in vivo

SMILES	Vd [1] [L/kg]	bioavailability [2] [%]	Vd [3] [L/kg]	bioavailability [4] [%]
CC(C)NC(=O)[C@H]1CC[C@@H](n2/c(=N/C(=O)c3ccc(F)cc3)[nH]c3ccc(CN4CCC(C(C)(C)O)CC4)cc32)CC1	6.4	52	1.58	20
CC(C)NC(=O)[C@H]1CC[C@@H](n2/c(=N/C(=O)c3cc(F)cc(F)c3)[nH]c3ccc(CN4CCC(C(C)(C)O)CC4)cc32)CC1	5.42	71	1.82	11
